Results reported in ChEMBL document CHEMBL6120941, “Discovery of SIRT1-Activating Hydrogen Sulfide Donating Derivatives for Efficient Resistant of Myocardial Ischemic Injury” (J Med Chem, 2024).
Activity calls are given as the source filed them. The rule behind the calls is not given here.

Tests used:
H9c2 [1] = experiment: Cardioprotective activity against CoCl2-induced cellular hypoxia injury in rat H9c2 cells assessed as cell viability at 0.625 uM incubated for 24 hrs by CCK-8 assay (reference value: 51.80 +/- 2.58 %); type: functional; settings: read-out: Activity
H9c2 [2] = experiment: Induction of H2S release in rat H9c2 cells incubated for 24 hrs by fluorescence based imaging analysis; type: functional, cell-based; settings: dose 0.625-10 µM
Rattus norvegicus [3] = experiment: Cardioprotective activity in myocardial ischemia Sprague-Dawley rat model assessed as improvement in cell volume size at 10 to 30 mg/kg, IG treated for 7 days consecutively followed by ISO administration daily for 2 days consecutively by H and E/Masson staining based analysis; type: functional, organism-based; settings: dose 10-30 mg/kg, time 9.0 day
Rattus norvegicus [4] = experiment: Cardioprotective activity in myocardial ischemia Sprague-Dawley rat model assessed as improvement in positional rearrangement at 10 to 30 mg/kg, IG treated for 7 days consecutively followed by ISO administration daily for 2 days consecutively by H and E/Masson staining based analysis; type: functional, organism-based; settings: dose 10-30 mg/kg, time 9.0 day
H9c2 [5] = experiment: Cardioprotective activity against CoCl2-induced cellular hypoxia injury in rat H9c2 cells assessed as improvement in nuclear shrinkage at 5 to 10 uM incubated for 24 hrs by Hoechst 33258 nuclear staining based analysis; type: functional, cell-based; settings: dose 5-10 µM
H9c2 [6] = experiment: Antioxidant activity against CoCl2-induced cellular hypoxia injury in rat H9c2 cells assessed as decrease in hypoxia-induced CK level at 5 to 10 uM incubated for 24 hrs; type: functional, cell-based; settings: dose 5-10 µM
[7] = molecular target: T1, NAD-dependent protein deacetylase sirtuin-1 (Rattus norvegicus) (UniProt A0A0G2JZ79); experiment: Activation of SIRT1 in CoCl2-induced cellular hypoxia injury in rat H9c2 cells at 10 uM incubated for 24 hrs in presence of GSSG by immunofluorescence based analysis; type: cell-based
T1 sequence (whole entry): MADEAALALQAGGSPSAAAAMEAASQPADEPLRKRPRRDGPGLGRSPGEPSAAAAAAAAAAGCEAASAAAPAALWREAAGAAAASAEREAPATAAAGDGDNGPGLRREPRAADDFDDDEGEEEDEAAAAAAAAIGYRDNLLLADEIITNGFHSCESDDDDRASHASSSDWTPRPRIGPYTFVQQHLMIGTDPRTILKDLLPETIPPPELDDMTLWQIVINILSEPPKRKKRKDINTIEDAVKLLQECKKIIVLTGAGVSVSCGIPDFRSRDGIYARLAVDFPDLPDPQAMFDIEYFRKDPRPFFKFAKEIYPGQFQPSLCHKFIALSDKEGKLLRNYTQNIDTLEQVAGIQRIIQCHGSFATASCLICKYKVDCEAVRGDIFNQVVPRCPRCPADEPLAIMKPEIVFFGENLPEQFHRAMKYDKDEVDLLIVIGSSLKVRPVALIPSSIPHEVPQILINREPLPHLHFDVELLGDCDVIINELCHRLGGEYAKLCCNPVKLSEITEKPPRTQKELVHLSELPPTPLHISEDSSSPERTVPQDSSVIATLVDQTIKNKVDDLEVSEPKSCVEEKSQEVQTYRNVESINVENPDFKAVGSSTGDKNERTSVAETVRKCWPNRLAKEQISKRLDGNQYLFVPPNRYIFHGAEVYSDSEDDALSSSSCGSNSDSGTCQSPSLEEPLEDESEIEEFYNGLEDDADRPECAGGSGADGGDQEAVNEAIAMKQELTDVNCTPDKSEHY

Q: Which viability at 0.625 µM (H9c2 [1]) does the source give for `C=CCSSCCC(=O)O[C@H]1CC[C@]2(C)[C@H]3C[C@@H](O)[C@@H]4[C@@H]([C@]5(C)CC[C@@H](C(C)(C)O)O5)CC[C@@]4(C)[C@]3(C)CC[C@H]2C1(C)C` here?
A: Its viability at 0.625 µM is 76.5%.

Q: And the Activity (H9c2 [2])?
A: The Activity was “Dose-dependent-effect”.

Q: What about the Activity (Rattus norvegicus [3]) of the same compound?
A: Its Activity is “Active”.

Q: What about the Activity (Rattus norvegicus [4]) of the same compound?
A: The Activity was “Active”.

Q: And the Activity (H9c2 [5])?
A: The Activity was “Active”.

Q: And the Activity (H9c2 [6])?
A: The Activity was “Active”.

Q: What about the Activity [7] of the same compound?
A: Its Activity is “inactive”.
